This is an account of results in US20220396567A1, “SUBSTITUTED PYRIMIDINE FOR THE TREATMENT AND PROPHYLAXIS OF HEPATITIS B VIRUS INFECTION” (Hoffmann-La Roche Inc., priority 2019, published 2022).

This assay has as its system HBV. Nature of the assay: Cryopreserved primary human hepatocytes (PHH) HBV infection assay, extracellular HBsAg by CLIA. The format is cell-based. As to conditions: Hepatitis B virus, Hepatocyte, 216 h; HBV-infected cryopreserved PHH; extracellular HBsAg at 9 days post-compound treatment; 4 parameter logistic curve fit. The method, then:
This assay is used to confirm the anti-HBV effect of the compounds in HBV PHH infection assay. Cryopreserved PHH (BioreclamationIVT, Lot YJM) was thawed at 37° C. and gently transferred into pre-warmed InVitroGRO HT medium (BioreclamationIVT, Cat. S03317). The mixture was centrifuged at 70 relative centrifugal force (RCF) for 3 min at RT, and the supernatant was discarded. Pre-warmed InVitroGRO CP medium (BioreclamationIVT, Cat #S03316) was added to the cell pellet to gently re-suspend cells. The cells were seeded at the density of 5.8×10^4 cells per well to collagen I coated 96-well plate (Gibco, Cat. A1142803) with the InVitroGRO CP medium. All plates were incubated at 37° C. with 5% CO2 and 85% humidity.
At 20 hrs after plating, the medium was changed to PHH culture medium (Dulbecco's Modified Eagle Medium (DMEM)/F12 (1:1) (Gibco, Cat. 11320-033), 10% fetal bovine serum (Gibco Cat. 10099141), 100 U/mL penicillin, 100 μg/mL streptomycin (Gibco, Cat. 151401-122), […] (Invitrogen Cat. PHG0311L), 20 ng/mL dexamethasone (Sigma, Cat. D4902) and 250 ng/mL human recombinant insulin (Gibco, Cat. 12585-014)). And the cells were incubated at 37° C. with 5% CO2 and 85% humidity for 4 hrs. The medium was then changed to pre-warmed PHH culture medium containing 4% polyethylene glycol (PEG) MW8000 (Sigma, Cat. P1458-50 ML) and 1% DMSO (Sigma, Cat. D2650). 5.8×10^6 genomic equivalents of HBV were added into the medium.
At 24 hrs post-infection, the cells were gently washed with PBS and refreshed with PHH culture medium supplemented with 1% DMSO, and 0.25 mg/mL Matrix gel (Corning, Cat. 356237) at 200 μL per well. All plates were immediately placed in at 37° C. CO2 incubator.
24 hrs later, serial dilutions of compounds made with DMSO were further diluted with the same culture medium (PHH culture medium supplemented with 1% DMSO and 0.25 mg/mL Matrix gel as described above) before they were added to the cells to reach desired final compound concentrations and 1% DMSO concentration. The medium containing the compounds were refreshed every three days.
At 9 days post-compound treatment, extracellular HBsAg level were measured with Chemiluminescence Immuno Assay (CLIA) kit (Autobio, HBsAg Quantitative CLIA).
HBsAg IC50 was derived from the dose-response curve using 4 parameter logistic curve fit method. The compounds of formula (I) have HBsAg IC50<20 μM, particularly <1 μM.
`CC(C)CNc1ncnc(-c2ccco2)c1C#N` [Example 26, 4-(2-furyl)-6-(isobutylamino)pyrimidine-5-carbonitrile]: 5.7 µM corresponded to half-maximal inhibition (IC50).

Regarding `N#Cc1c(NCc2ccccc2N)ncnc1-c1ccco1` [Example 31, 4-[(2-aminophenyl)methylamino]-6-(2-furyl)pyrimidine-5-carbonitrile], inhibition was half-maximal at 0.27 µM (IC50).

In the case of `CN(C)c1nc(NCc2cccc(C(F)(F)F)c2)c(C#N)c(-c2ccco2)n1` [Example 16, 2-(dimethylamino)-4-(2-furyl)-6-[[3-(trifluoromethyl)phenyl]methylamino]pyrimidine-5-carbonitrile], 6.75 µM corresponded to half-maximal inhibition (IC50). To `O=C(O)c1c(NCc2cccc(C(F)(F)F)c2)nc(N2CC3(CCC3)C2)nc1-c1ccco1` [Example 48, 2-(2-azaspiro[3.3]heptan-2-yl)-4-(2-furyl)-6-[[3-(trifluoromethyl)phenyl]methylamino]pyrimidine-5-carboxylic Acid] belongs 6.37 µM; to `Nc1nc(NCc2cccc(C(F)(F)F)c2)c(C(=O)N2CCC2)c(-c2ccco2)n1` [Example 52, [2-amino-4-(2-furyl)-6-[[3-(trifluoromethyl)phenyl]methylamino]pyrimidin-5-yl]-(azetidin-1-yl)methanone], 7.94 µM.

Turning to `CCOC(=O)c1c(NCc2ccccc2Cl)ncnc1-c1ccco1` [Example 57, Ethyl 4-[(2-chlorophenyl)methylamino]-6-(2-furyl)pyrimidine-5-carboxylate], the IC50 (commonly the point on the concentration scale where inhibition reaches its midpoint) is 4.26 µM. To `CCOC(=O)c1c(NCc2c(Br)ccc(OC)c2OC)nc(N)nc1-c1ccco1` [Example 44, Ethyl 2-amino-4-[(6-bromo-2,3-dimethoxy-phenyl)methylamino]-6-(2-furyl)pyrimidine-5-carboxylate] belongs 8.06 µM; to `COCCNc1nc(NCc2cccc(C(F)(F)F)c2)c(C(=O)O)c(-c2ccco2)n1` [Example 46, 4-(2-furyl)-2-(2-methoxyethylamino)-6-[[3-(trifluoromethyl)phenyl]methylamino]pyrimidine-5-carboxylic Acid], 4.31 µM. Then `N#Cc1c(NCC2CCC(F)(F)C2)nc(N)nc1-c1ccco1` (centres unmarked) [Example 8, 2-amino-4-[(3,3-difluorocyclopentyl)methylamino]-6-(2-furyl)pyrimidine-5-carbonitrile], with 10.2 µM; and `COc1ccccc1CNc1nc(N)nc(-c2ccco2)c1C(=O)O` [Example 40, 2-amino-4-(2-furyl)-6-[(2-methoxyphenyl)methylamino]pyrimidine-5-carboxylic Acid], with 6.67 µM. To `CCOC(=O)c1c(NCc2cccc(C(F)(F)F)c2)nc(N2CC3(CCC3)C2)nc1-c1ccco1` [Example 47, Ethyl 2-(2-azaspiro[3.3]heptan-2-yl)-4-(2-furyl)-6-[[3-(trifluoromethyl)phenyl]methylamino]pyrimidine-5-carboxylate] belongs 3.26 µM; to `Nc1nc(NCc2cccc(C(F)(F)F)c2)c(C(=O)N2CCCCC2)c(-c2ccco2)n1` [Example 54, [2-amino-4-(2-furyl)-6-[[3-(trifluoromethyl)phenyl]methylamino]pyrimidin-5-yl]-(1-piperidyl)methanone], 6.59 µM. The molecule `N#Cc1c(NCc2ccccc2)ncnc1-c1ccco1` [Example 25, 4-(benzylamino)-6-(2-furyl)pyrimidine-5-carbonitrile] showed an IC50 of 2.03 µM. Against the preceding molecule, the IC50 is about 3.2-fold lower. To `N#Cc1c(NC2CCCC2)nc(N)nc1-c1ccco1` [Example 9, 2-amino-4-(cyclopentylamino)-6-(2-furyl)pyrimidine-5-carbonitrile] belongs 8.68 µM; to `CC(C)CNc1nc(NCc2cccc(C(F)(F)F)c2)c(C(=O)O)c(-c2ccco2)n1` [Example 50, 4-(2-furyl)-2-(isobutylamino)-6-[[3-(trifluoromethyl)phenyl]methylamino]pyrimidine-5-carboxylic Acid], 8.62 µM. Then `CC(Nc1cc(-c2ccco2)nc(N(C)C)n1)c1cccc(C(F)(F)F)c1` (centres unmarked) [Example 32, 6-(2-furyl)-N2,N2-dimethyl-N4-[1-[3-(trifluoromethyl)phenyl]ethyl]pyrimidine-2,4-diamine], with 3.49 µM; and `N#Cc1c(NCC2CCCCC2)nc(N)nc1-c1ccco1` [Example 10, 2-amino-4-(cyclohexylmethylamino)-6-(2-furyl)pyrimidine-5-carbonitrile], with 3.62 µM. Then `N#Cc1c(NCC(F)Cc2ccccc2Cl)nc(N)nc1-c1ccco1` (centres unmarked) [Example 4, 2-amino-4-[[3-(2-chlorophenyl)-2-fluoro-propyl]amino]-6-(2-furyl)pyrimidine-5-carbonitrile], with 11.4 µM; and `CCNc1nc(NCc2cccc(C(F)(F)F)c2)c(C#N)c(-c2ccco2)n1` [Example 14, 2-(ethylamino)-4-(2-furyl)-6-[[3-(trifluoromethyl)phenyl]methylamino]pyrimidine-5-carbonitrile], with 2.76 µM; and `N#Cc1c(NCc2cccc(C(F)(F)F)c2)nc(NCC(F)(F)F)nc1-c1ccco1` [Example 13, 4-(2-furyl)-2-(2,2,2-trifluoroethylamino)-6-[[3-(trifluoromethyl)phenyl]methylamino]pyrimidine-5-carbonitrile], with 3.93 µM. On to `Nc1nc(NCc2cccc(C(F)(F)F)c2)c(C(=O)N2CCCC2)c(-c2ccco2)n1` [Example 53, [2-amino-4-(2-furyl)-6-[[3-(trifluoromethyl)phenyl]methylamino]pyrimidin-5-yl]-pyrrolidin-1-yl-methanone], for which the concentration for half-maximal inhibition (IC50) turned out to be 9.25 µM. To `COc1cccc(CN(C)c2nc(N)nc(-c3ccco3)c2C#N)c1` [Example 6] belongs 10.1 µM. To `CC(Nc1nc(N)nc(-c2ccco2)c1C#N)c1cccc(C(F)(F)F)c1` (centres unmarked) [Example 5, 2-amino-4-(2-furyl)-6-[1-[3-(trifluoromethyl)phenyl]ethylamino]pyrimidine-5-carbonitrile] belongs 0.47 µM; to `COc1ccc(Br)c(CNc2nc(C)nc(-c3ccco3)c2C#N)c1OC` [Example 20, 4-[(6-bromo-2,3-dimethoxy-phenyl)methylamino]-6-(2-furyl)-2-methyl-pyrimidine-5-carbonitrile], 2.66 µM; to `COCCNc1nc(NCc2cccc(Cl)c2)c(C(=O)O)c(-c2ccco2)n1` [Example 59, 4-[(3-chlorophenyl)methylamino]-6-(2-furyl)-2-(2-methoxyethylamino)pyrimidine-5-carboxylic Acid], 3.71 µM.

Consider `CC(Nc1nc(N)nc(-c2ccco2)c1C#N)c1ccccc1` (centres unmarked) [Example 1, 2-amino-4-(2-furyl)-6-(1-phenylethylamino)pyrimidine-5-carbonitrile], for which the midpoint of inhibition, the IC50, lay at 5.93 µM. Then `CC1(C)CC(CNc2nc(N)nc(-c3ccco3)c2C#N)CC(C)(C)O1` [Example 3, 2-amino-4-(2-furyl)-6-[(2,2,6,6-tetramethyltetrahydropyran-4-yl)methylamino]pyrimidine-5-carbonitrile], with 1.67 µM; and `CC(C)(C)OC(=O)N1CCN(C(=O)c2c(NCc3cccc(C(F)(F)F)c3)nc(N)nc2-c2ccco2)CC1` [Example 56, tert-butyl4-[2-amino-4-(2-furyl)-6-[[3-(trifluoromethyl)phenyl]methylamino]pyrimidine-5-carbonyl]piperazine-1-carboxylate], with 9.66 µM. To `Cc1nc(NCc2ccccc2)c(C#N)c(-c2ccco2)n1` [Example 23, 4-(benzylamino)-6-(2-furyl)-2-methyl-pyrimidine-5-carbonitrile] belongs 6.89 µM; to `CSc1nc(NCc2cccc(C(F)(F)F)c2)c(C#N)c(-c2ccco2)n1` [Example 11, 4-(2-furyl)-2-methylsulfanyl-6-[[3-(trifluoromethyl)phenyl]methylamino]pyrimidine-5-carbonitrile], 2.35 µM; to `N#Cc1c(NCC2CCCCC2)ncnc1-c1ccco1` [Example 27, 4-(cyclohexylmethylamino)-6-(2-furyl)pyrimidine-5-carbonitrile], 6.83 µM. Then `CCOC(=O)c1c(NCc2c(Br)ccc(OC)c2OC)nc(C(C)C)nc1-c1ccco1` [Example 62, Ethyl 4-[(6-bromo-2,3-dimethoxy-phenyl)methylamino]-6-(2-furyl)-2-isopropyl-pyrimidine-5-carboxylate], with 10.2 µM.
